This passage reports IC50 results from patent US10138236B2, “Factor xia-inhibiting pyridobenzazepine and pyridobenzazocine derivatives” (BAYER PHARMA AKTIENGESELLSCHAFT, priority 2014, dated 2018).

One assay deals with human factor XIa (Homo sapiens (Human), UniProt P03951). Briefly: Measurement of FXIa inhibition. The following applies: factor XIa from Kordia, substrate Boc-Glu(OBzl)-Ala-Arg-AMC, fluorescence. The class given is biochemical. As for the experimental part: a.1) Measurement of FXIa Inhibition
Chain of human factor XIa (P03951 388-625): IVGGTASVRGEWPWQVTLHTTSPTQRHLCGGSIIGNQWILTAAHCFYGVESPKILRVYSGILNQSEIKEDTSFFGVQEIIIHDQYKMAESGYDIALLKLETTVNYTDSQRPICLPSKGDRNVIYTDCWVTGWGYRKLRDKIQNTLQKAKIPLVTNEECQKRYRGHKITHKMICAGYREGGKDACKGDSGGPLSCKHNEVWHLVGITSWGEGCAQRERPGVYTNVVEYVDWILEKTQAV
Chain of human factor XIa (P03951 19-387 partner): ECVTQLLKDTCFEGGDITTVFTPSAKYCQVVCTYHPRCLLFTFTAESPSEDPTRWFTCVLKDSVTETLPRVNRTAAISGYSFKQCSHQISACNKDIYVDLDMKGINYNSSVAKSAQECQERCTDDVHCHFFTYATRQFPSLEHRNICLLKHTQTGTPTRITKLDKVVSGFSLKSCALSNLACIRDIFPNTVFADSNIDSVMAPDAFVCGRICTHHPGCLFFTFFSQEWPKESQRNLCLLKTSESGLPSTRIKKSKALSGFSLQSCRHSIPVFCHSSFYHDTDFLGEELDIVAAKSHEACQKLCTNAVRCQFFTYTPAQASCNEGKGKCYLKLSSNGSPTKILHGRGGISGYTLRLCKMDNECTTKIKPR
The factor XIa inhibition of the substances according to the invention is determined using a biochemical test system which utilizes the reaction of a peptidic factor XIa substrate to determine the enzymatic activity of human factor XIa. Here, factor XIa cleaves from the peptic factor XIa substrate the C-terminal aminomethylcoumarin (AMC), the fluorescence of which is measured. The determinations are carried out in microtitre plates.
1 μl of the diluted substance solutions is placed into each of the wells of white microtitre plates from Greiner (384 wells). […] After 15 min of incubation, the enzyme reaction is started by addition of 20 μl of the factor XIa substrate Boc-Glu(OBzl)-Ala-Arg-AMC dissolved in assay buffer (10 μM in assay buffer) from Bachem, the mixture is incubated at room temperature (22° C.) for 30 min and fluorescence is then measured (excitation: 360 nm, emission: 460 nm). The measured emissions of the test batches with test substance are compared to those of control batches without test substance (only dimethyl sulphoxide instead of test substance in dimethyl sulphoxide), and IC50 values are calculated from the concentration/activity relationships.

Another assay concerns the target human plasma kallikrein (Homo sapiens (Human), UniProt P03952). Briefly: Determination of the plasma kallikrein activity. Type of assay: biochemical. The following applies: plasma kallikrein from Kordia, substrate H-Pro-Phe-Arg-AMC, fluorescence. As for the experimental part:
a.5) Determination of the Plasma Kallikrein Activity
To determine the plasma kallikrein inhibition of the substances according to the invention, a biochemical test system is used which utilizes the reaction of a peptidic plasma kallikrein substrate to determine the enzymatic activity of human plasma kallikrein. Here, plasma kallikrein cleaves from the peptic plasma kallikrein substrate the C-terminal aminomethylcoumarin (AMC), the fluorescence of which is measured. The determinations are carried out in microtitre plates.
1 μl of the diluted substance solutions is placed into each of the wells of white microtitre plates from Greiner (384 wells). 20 μl of assay buffer (50 mM Tris/HCl pH 7.4; 100 mM sodium chloride solution; 5 mM of calcium chloride solution; 0.1% of bovine serum albumin) and 20 μl of plasma kallikrein from Kordia (0.6 nM in assay buffer) are then added successively. After 15 min of incubation, the enzyme reaction is started by addition of 20 μl of the substrate H-Pro-Phe-Arg-AMC dissolved in assay buffer (10 μM in assay buffer) from Bachem, the mixture is incubated at room temperature (22° C.) for 30 min and fluorescence is then measured (excitation: 360 nm, emission: 460 nm). The measured emissions of the test batches with test substance are compared to those of control batches without test substance (only dimethyl sulphoxide instead of test substance in dimethyl sulphoxide), and IC50 values are calculated from the concentration/activity relationships.

Chain of human plasma kallikrein (P03952 391-638): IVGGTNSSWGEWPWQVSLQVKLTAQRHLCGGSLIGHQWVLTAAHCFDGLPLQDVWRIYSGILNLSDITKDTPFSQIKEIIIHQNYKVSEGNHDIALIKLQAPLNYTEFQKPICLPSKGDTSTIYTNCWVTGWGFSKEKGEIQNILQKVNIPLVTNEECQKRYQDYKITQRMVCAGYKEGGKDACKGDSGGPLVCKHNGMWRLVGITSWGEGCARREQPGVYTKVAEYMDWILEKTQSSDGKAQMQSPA
Chain of human plasma kallikrein (P03952 20-390 partner): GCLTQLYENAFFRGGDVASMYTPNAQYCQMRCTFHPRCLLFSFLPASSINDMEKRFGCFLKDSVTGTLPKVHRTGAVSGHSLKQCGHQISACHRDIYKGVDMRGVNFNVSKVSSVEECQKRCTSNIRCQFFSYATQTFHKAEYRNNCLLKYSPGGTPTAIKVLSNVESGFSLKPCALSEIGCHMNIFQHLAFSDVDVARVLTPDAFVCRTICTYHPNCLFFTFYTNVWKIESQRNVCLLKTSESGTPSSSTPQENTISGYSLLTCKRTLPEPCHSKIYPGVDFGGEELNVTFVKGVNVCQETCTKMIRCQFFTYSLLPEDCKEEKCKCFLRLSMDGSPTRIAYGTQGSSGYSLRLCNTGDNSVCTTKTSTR

The IC50 is the concentration that gives 50% inhibition. As for `COCCC(C(=O)Nc1ccc2[nH]c(=O)[nH]c2c1)n1cc2c(cc1=O)-c1cc(Cl)ccc1CC1(CC1)NC2=O` (centres unmarked) [Example 14, 2-(11′-Chloro-2′,5′-dioxo-2′,5′,6′,8′-tetrahydro-3′H-spiro[cyclopropane-1,7′-pyrido[3,4-e][3]benzazocine]-3′-yl)-4-methoxy-N-(2-oxo-2,3-dihydro-1H-benzimidazol-5-yl)butanamide], the figures for the IC50 against human factor XIa and on human plasma kallikrein were 18 nM and 230 nM, respectively.

Regarding `CCC(C(=O)Nc1ccc(C(=O)O)cc1)n1cc2c(cc1=O)-c1cc(Cl)ccc1CNC2=O` (centres unmarked) [Example 1, 4-{[2-(10-Chloro-2,5-dioxo-2,5,6,7-tetrahydro-3H-pyrido[3,4-d][2]benzazepin-3-yl)butanoyl]amino}benzoic acid], the IC50 is 420 nM against human factor XIa and over 10000 nM against human plasma kallikrein.

With `COCCC(C(=O)Nc1ccc(C(=O)O)s1)n1cc2c(cc1=O)-c1cc(Cl)ccc1CC1(CC1)NC2=O` (centres unmarked) [Example 22, 5-{[2-(11′-Chloro-2′,5′-dioxo-2′,5′,6′,8′-tetrahydro-3′H-spiro[cyclopropane-1,7′-pyrido[3,4-e][3]benzazocine]-3′-yl)-4-methoxybutanoyl]amino}thiophene-2-carboxylic acid], the figures for the IC50 against human factor XIa and at human plasma kallikrein were 4 nM and 340 nM, respectively.

For the compound `COCCC(C(=O)Nc1ccn2nccc2c1)n1cc2c(cc1=O)-c1cc(Cl)ccc1CC1(CC1)NC2=O` (centres unmarked) [Example 16, 2-(11′-Chloro-2′,5′-dioxo-2′,5′,6′,8′-tetrahydro-3′H-spiro[cyclopropane-1,7′-pyrido[3,4-e][3]benzazocine]-3′-yl)-4-methoxy-N-(pyrazolo[1,5-a]pyridin-5-yl)butanamide], the IC50 on human factor XIa was found to be 11 nM; against human plasma kallikrein it was 210 nM.

With `COCCC(C(=O)Nc1ccc2nccn2c1)n1cc2c(cc1=O)-c1cc(Cl)ccc1CC1(CC1)NC2=O` (centres unmarked) [Example 17, 2-(11′-Chloro-2′,5′-dioxo-2′,5′,6′,8′-tetrahydro-3′H-spiro[cyclopropane-1,7′-pyrido[3,4-e][3]benzazocine]-3′-yl)-N-(imidazo[1,2-a]pyridin-6-yl)-4-methoxybutanamide], the concentration for half-maximal inhibition (IC50) at human factor XIa came to 44 nM; against human plasma kallikrein it was 1200 nM.

For the compound `COCCC(C(=O)Nc1ccc2nn(C)cc2c1)n1cc2c(cc1=O)-c1cc(Cl)ccc1CC1(CC1)NC2=O` (centres unmarked) [Example 15, 2-(11′-Chloro-2′,5′-dioxo-2′,5′,6′,8′-tetrahydro-3′H-spiro[cyclopropane-1,7′-pyrido[3,4-e][3]benzazocine]-3′-yl)-4-methoxy-N-(2-methyl-2H-indazol-5-yl)butanamide], the figures for the IC50 at human factor XIa and against human plasma kallikrein were 8.2 nM and 240 nM, respectively.

For `O=C(O)c1ccc(NC(=O)C(Cc2ccccc2)n2cc3c(cc2=O)-c2cc(Cl)ccc2CC2(CC2)NC3=O)cc1` (centres unmarked) [Example 28, 4-{[2-(11′-Chloro-2′,5′-dioxo-2′,5′,6′,8′-tetrahydro-3′H-spiro[cyclopropane-1,7′-pyrido[3,4-e][3]benzazocine]-3′-yl)-3-phenylpropanoyl]amino}benzoic acid], the IC50 against human factor XIa came out at 1.8 nM; against human plasma kallikrein it was 55 nM.

For `CO[C@H]1CC[C@H](CC(C(=O)Nc2ccc3[nH]c(=O)[nH]c3c2)n2cc3c(cc2=O)-c2cc(Cl)ccc2CC2(CC2)NC3=O)CC1` (stereo partly drawn) [Example 27, 2-(11′-Chloro-2′,5′-dioxo-2′,5′,6′,8′-tetrahydro-3′H-spiro[cyclopropane-1,7′-pyrido[3,4-e][3]benzazocine]-3′-yl)-3-(trans-4-methoxycyclohexyl)-N-(2-oxo-2,3-dihydro-1H-benzimidazol-5-yl)propanamide], the IC50 against human factor XIa was found to be 18 nM; against human plasma kallikrein, 250 nM.

As for `CCC(C(=O)Nc1ccc(C(=O)O)cc1)n1cc2c(cc1=O)-c1cc(Cl)ccc1CC1(CC1)NC2=O` (centres unmarked) [Example 10, 4-{[2-(11′-Chloro-2′,5′-dioxo-2′,5′,6′,8′-tetrahydro-3′H-spiro[cyclopropane-1,7′-pyrido[3,4-e][3]benzazocine]-3′-yl)butanoyl]amino}benzoic acid], the IC50 at human factor XIa was 7.7 nM; against human plasma kallikrein, 2100 nM.

As to `CCC(C(=O)Nc1ccc(C(=O)O)cc1)n1cc2c(cc1=O)-c1cc(Cl)ccc1C1(CC1)NC2=O` (centres unmarked) [Example 3, 4-{[2-(10′-Chloro-2′,5′-dioxo-5′,6′-dihydrospiro[cyclopropane-1,7′-pyrido[3,4-d][2]benzazepine]-3′(2′H)-yl)butanoyl]amino}benzoic acid], the IC50 is 180 nM on human factor XIa and over 50000 nM at human plasma kallikrein.

As for `COCCC(C(=O)Nc1ccc(C(N)=O)nc1)n1cc2c(cc1=O)-c1cc(Cl)ccc1CC1(CC1)NC2=O` (centres unmarked) [Example 21, 5-{[2-(11′-Chloro-2′,5′-dioxo-2′,5′,6′,8′-tetrahydro-3′H-spiro[cyclopropane-1,7′-pyrido[3,4-e][3]benzazocine]-3′-yl)-4-methoxybutanoyl]amino}pyridine-2-carboxamide], the IC50 at human factor XIa was found to be 34 nM; against human plasma kallikrein it was 910 nM.

Consider `COCCC(C(=O)Nc1ccc2nn(C)cc2c1)n1cc2c(cc1=O)-c1cc(Cl)ccc1CC(CF)NC2=O` (centres unmarked) [Example 31, 2-[11-Chloro-7-(fluoromethyl)-2,5-dioxo-5,6,7,8-tetrahydropyrido[3,4-e][3]benzazocin-3(2H)-yl]-4-methoxy-N-(2-methyl-2H-indazol-5-yl)butanamide], for which the IC50 on human factor XIa amounted to 2.8 nM; against human plasma kallikrein it was 42 nM.

In the case of `O=C(Cn1cc2c(cc1=O)-c1cc(Cl)ccc1CCNC2=O)Nc1ccc(-c2noc(=O)[nH]2)cc1` [Example 5, 2-(11-Chloro-2,5-dioxo-5,6,7,8-tetrahydropyrido[3,4-e][3]benzazocin-3(2H)-yl)-N-[4-(5-oxo-4,5-dihydro-1,2,4-oxadiazol-3-yl)phenyl]acetamide], the IC50 turned out to be 350 nM on human factor XIa and 8300 nM against human plasma kallikrein.
